# From patent US20250059172A1, “INDAZOLE COMPOUND AND PHARMACEUTICAL” (NIPPON SHINYAKU CO., LTD., priority 2021, published 2025)
# pIC50: −log10 of the molar value. Counter-ions that a name gives are not always drawn.
# Key:
# human A549 cells = test: Inhibition test of PGE2 production using human A549 cells; format: cell-based; conditions: IL-1β stimulated A549 cells, 24 h, PGE2 by HTRF, read-out: A549 cell inhibition of PGE2 production IC50
# In short: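 PGE2 (HTRF) and PGF2a (EIA) were quantified in medium after 24 h, 37°C IL-1β stimulation (5 ng/well) of human A549 cells that had received test compound 60 min beforehand (0.1% DMSO, 3% FBS RPMI). IC50 relative to the window between IL-1β-stimulated and unstimulated controls.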
# [1] = test system: Female Hartley guinea pigs; test: Suppression of urinary output in a guinea pig model of water-loaded polyuria; format: in vivo; conditions: oral, total urinary output up to 3 hours after water load, relative to vehicle group
# Experimental: The water-loaded polyuria model, commonly used as a model for polyuria, was used to evaluate the inhibitory effect of the test compounds on urinary output in the following manner. Female Hartley guinea pigs (Japan SLC Co., Ltd.) were acclimated in a metabolic cage (Natsume Seisakusho Co., Ltd.) in a fasted condition from the evening of one day before the test. On the following day, 20 mL/kg of distilled water was administered orally as a water load, and then the guinea pigs were placed back in the metabolic cage and the total urinary output up to 3 hours after the water load was downloaded into a personal computer via an electronic balance (GX-200, A&D Corporation) and a data collection and analysis system (PowerLab®, ADInstruments), and then analyzed using analyzing software (LabChart®, ADInstruments). Test compounds dissolved in 0.5% methylcellulose solution (vehicle) or vehicle only were administered orally immediately before water loading depending on the kinetics of the compound. Based on the total urinary output at 3 hours after administration of the test compound and vehicle groups, the percentage inhibition of urinary output of the test compound group (%) was calculated relative to the urinary output of the vehicle group.
# human mPGES-1 = human mPGES-1 (Homo sapiens (Human), UniProt O14684); test: mPGES-1 inhibitory activity test; format: biochemical; conditions: for IC50: microsomes of CHO-K1 cells expressing human mPGES-1, PGH2 1 μM, PGE2 by HTRF, read-out: mPGES-1 inhibition (IC50 nM); for inhibition at 0.01 µM: 10 nM test compound; for inhibition at 0.1 µM: 100 nM test compound
# human mPGES-1, sequence (O14684 whole entry): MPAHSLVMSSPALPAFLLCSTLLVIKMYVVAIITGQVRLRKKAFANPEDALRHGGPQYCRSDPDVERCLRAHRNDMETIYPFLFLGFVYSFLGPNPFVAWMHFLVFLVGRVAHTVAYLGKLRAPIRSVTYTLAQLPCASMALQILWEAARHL
# In short: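 PGE2 formation was quantified by HTRF and reported as percent inhibition at 10 and 100 nM compound or as IC50. The 60-second reaction at 4° C used 1 μM PGH2, after a 20-minute 4° C preincubation of compound (1% DMSO final) with glutathione-supplemented (2.5 mM, pH 7.4) microsomes. The microsomes were from transiently transfected CHO-K1 cells expressing human mPGES-1.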
Structure (SMILES),pIC50 (human A549 cells),IC50 (human mPGES-1) [nM],inhibition at 0.01 µM (human mPGES-1) [%],inhibition at 0.1 µM (human mPGES-1) [%],Suppression (%) of urinary output [1] [%]
"Cc1ccc(-n2ncc3c(NC(=O)c4cc(CNC(=O)C5(C(F)(F)F)CC5)ccc4Cl)cccc32)cc1Cl [Example 129, 2-Chloro-N-[1-(3-chloro-4-methylphenyl)-1H-indazol-4-yl]-5-[({[1-(trifluoromethyl)cyclopropyl]carbonyl}amino)methyl]benzamide]",8.92,–,67,–,–
"O=C(Nc1cccc2c1cnn2-c1ccc(C(F)(F)F)cc1)c1cc(CNC(=O)[C@H]2CC[C@@H](O)CC2)ccc1Cl [Example 40, 2-Chloro-5-({[cis-(4-hydroxycyclohexyl)carbonyl]amino}methyl)-N-{1-[4-(trifluoromethyl)phenyl]-1H-indazol-4-yl}benzamide]",7.22,19.1,–,–,–
"Cc1cc(-n2ncc3c(NC(=O)c4cc(CNC(=O)C5CCCC5)ccc4Cl)cccc32)cc(C)n1 [Example 278, 2-Chloro-5-{[(cyclopentylcarbonyl)amino]methyl}-N-[1-(2,6-dimethylpyridin-4-yl)-1H-indazol-4-yl]benzamide]",8.51,–,72,90,–
"Cc1ccc(-n2ncc3c(NC(=O)c4cc(CNC(=O)C5CC5)ccc4Cl)cccc32)cn1 [Example 10, 2-Chloro-5-{[(cvclopropylcarbonyl)amino]methyl}-N-[1-(6-methylpyridin-3-yl)-1H-indazol-4-yl]benzamide hydrochloride]",7.51,10,–,–,–
"COc1ccc(-n2ncc3c(NC(=O)c4cc(CNC(=O)C(C)(C)C)ccc4Cl)cccc32)cn1 [Example 63, 2-Chloro-5-{[(2,2-dimethylpropanoyl)amino]methyl}-N-[1-(6-methoxypyridin-3-yl)-1H-indazol-4-yl]benzamide]",7.86,1,–,–,–
"CCOCc1ccc(-n2ncc3c(NC(=O)c4cc(CNC(=O)C(C)(C)C)ccc4Cl)cccc32)cn1 [Example 86, 2-Chloro-5-{[(2,2-dimethylpropanoyl)amino]methyl}-N-{1-[6-(ethoxymethyl)pyridin-3-yl]-1H-indazol-4-yl}benzamide hydrochloride]",7.00,15.7,–,–,–
"CC(C)(C)CC(=O)NCc1ccc(Cl)c(C(=O)Nc2cccc3c2cnn3-c2ccc(C(F)(F)F)cc2)c1 [Example 20, 2-Chloro-5-{[(3,3-dimethylbutanoyl)amino]methyl}-N-{1-[4-(trifluoromethyl)phenyl]-1H-indazol-4-yl}benzamide]",8.55,< 1,–,–,–
"CC(C)(C)C(=O)NCc1ccc(Cl)c(C(=O)Nc2cccc3c2cnn3C2CCCC2)c1 [Example 97, 2-Chloro-N-(1-cyclopentyl-1H-indazol-4-yl)-5-{[(2,2-dimethylpropanoyl)amino]methyl}benzamide]",8.28,0.7,–,–,–
"COCc1ccc(-n2ncc3c(NC(=O)c4cc(CNC(=O)C(C)(C)C)ccc4Cl)cccc32)cn1 [Example 74, 2-Chloro-5-{[(2,2-dimethylpropanoyl)amino]methyl}-N-{1-[6-(methoxymethyl)pyridin-3-yl]-1H-indazol-4-yl}benzamide hydrochloride]",7.81,1.3,–,–,–
"Cc1cncc(-n2ncc3c(NC(=O)c4cc(CNC(=O)C(C)(C)C)ccc4Cl)cccc32)c1 [Example 60, 2-Chloro-5-{[(2,2-dimethylpropanoyl)amino]methyl}-N-[1-(5-methylpyridin-3-yl)-1H-indazol-4-yl]benzamide hydrochloride]",7.98,6.7,–,–,–
"O=C(Nc1cccc2c1cnn2-c1ccc(Cl)cc1)c1cc(CNS(=O)(=O)C2CC2)ccc1Cl [Example 150, 2-Chloro-N-[1-(4-chlorophenyl)-1H-indazol-4-yl]-5-([(cyclopropylsulfonyl)amino]methyl)benzamide]",8.23,–,72,–,–
"Cc1ccc(-n2ncc3c(NC(=O)c4cc(CNC(=O)C(C)(C)C)ccc4Cl)cccc32)cn1 [Example 54, 2-Chloro-5-{[(2,2-dimethylpropanoyl)amino]methyl}-N-[1-(6-methylpyridin-3-yl)-1H-indazol-4-yl]benzamide hydrochloride]",8.21,9.5,–,–,–
"CC(C)(C)CC(=O)NCc1ccc(Cl)c(C(=O)Nc2cccc3c2cnn3-c2cccc(OC(F)F)c2)c1 [Example 138, 2-Chloro-N-{1-[3-(difluoromethoxy)phenyl]-1H-indazol-4-yl}-5-{[(3,3-dimethylbutanoyl)amino]methyl}benzamide]",8.22,–,61,100,–
"O=C(Nc1cccc2c1cnn2-c1ccc(Cl)cc1)c1cc(CNC(=O)C2(C(F)(F)F)CC2)ccc1Cl [Example 147, 2-Chloro-N-[1-(4-chlorophenyl)-1H-indazol-4-yl]-5-[({[1-(trifluoromethyl)cyclopropyl]carbonyl}amino)methyl]benzamide]",9.05,–,85,–,–

# More lines, in order of rising pIC50 (human A549 cells), values ahead:
pIC50 (human A549 cells),IC50 (human mPGES-1) [nM],inhibition at 0.01 µM (human mPGES-1) [%],inhibition at 0.1 µM (human mPGES-1) [%],Structure (SMILES),Suppression (%) of urinary output [1] [%]
6.10,–,63,68,"Cn1ncc2c(NC(=O)c3cc(CNS(=O)(=O)C4CC4)ccc3Cl)cccc21 [Example 208, 2-Chloro-5-{[(cyclopropylsulfonyl)amino]methyl}-N-(1-methyl-1H-indazol-4-yl)benzamide]",–
7.09,99.9,–,–,"CC(C)(C)C(=O)NCc1ccc(Cl)c(C(=O)Nc2cccc3c2cnn3C2CCOCC2)c1 [Example 104, 2-Chloro-5-{[(2,2-dimethylpropanoyl)amino]methyl}-N-[1-(tetrahydro-2H-pyran-4-yl)-1H-indazol-4-yl]benzamide]",–
7.39,–,75,–,"CC(C)n1ncc2c(NC(=O)c3cc(CNC(=O)C4CCCC4)ccc3Cl)cccc21 [Example 180, 2-Chloro-5-{[(cyclopentylcarbonyl)amino]methyl}-N-[1-(propan-2-yl)-1H-indazol-4-yl]benzamide]",–
7.69,11.1,–,–,"CC(C)(C)C(=O)NCc1ccc(Cl)c(C(=O)Nc2cccc3c2cnn3CCCCc2ccccc2)c1 [Example 108, 2-Chloro-5-{[(2,2-dimethylpropanoyl)amino]methyl}-N-[1-(4-phenylbutyl)-1H-indazol-4-yl]benzamide]",–
7.94,6.2,–,–,"CC(C)(C)C(=O)NCc1ccc(Cl)c(C(=O)Nc2cccc3c2cnn3-c2ccc(C#N)nc2)c1 [Example 72, 2-Chloro-N-[1-(6-cyanopyridin-3-yl)-1H-indazol-4-yl]-5-([(2,2-dimethylpropanoyl)amino]methyl)benzamide]",–
8.29,–,98,–,"O=C(Nc1cccc2c1cnn2-c1cccc(OC(F)(F)F)c1)c1cc(CNC(=O)C2(C(F)(F)F)CC2)ccc1Cl [Example 123, 2-Chloro-N-{1-[3-(trifluoromethoxy)phenyl]-1H-indazol-4-yl}-5-[({[1-(trifluoromethyl)cyclopropyl]carbonyl}amino)methyl]benzamide]",–
8.44,2.2,–,–,"CCOc1ccc(-n2ncc3c(NC(=O)c4cc(CNC(=O)C(C)(C)C)ccc4Cl)cccc32)cc1 [Example 65, 2-Chloro-5-{[(2,2-dimethylpropanoyl)amino]methyl}-N-[1-(4-ethoxyphenyl)-1H-indazol-4-yl]benzamide]",–
8.46,–,62,–,"CC(C)(CO)C(=O)NCc1ccc(Cl)c(C(=O)Nc2cccc3c2cnn3-c2cccc(OC(F)(F)F)c2)c1 [Example 125, 2-Chloro-5-{[(3-hydroxy-2,2-dimethylpropanoyl)amino]methyl}-N-{1-[3-(trifluoromethoxy)phenyl]-1H-indazol-4-yl}benzamide]",58.0
8.46,–,78,89,"Cc1cncc(-n2ncc3c(NC(=O)c4cc(CNC(=O)C(C)(C)C)ccc4C(F)(F)F)cccc32)c1 [Example 246, 5-{[(2,2-dimethylpropanoyl)amino]methyl}-N-[1-(5-methylpyridin-3-yl)-1H-indazol-4-yl]-2-(trifluoromethyl)benzamide]",–
8.54,–,100,–,"O=C(Nc1cccc2c1cnn2-c1cccc(OC(F)(F)F)c1)c1cc(CNC(=O)C2CCCC2)ccc1Cl [Example 122, 2-Chloro-5-{[(cyclopentylcarbonyl)amino]methyl}-N-{1-[3-(trifluoromethoxy)phenyl]-1H-indazol-4-yl}benzamide]",–
9.00,4.3,–,–,"CC(C)(C)C(=O)NCc1ccc(Cl)c(C(=O)Nc2cccc3c2cnn3-c2ccnc(C3CC3)c2)c1.Cl [Example 70, 2-Chloro-N-[1-(2-cyclopropylpyridin-4-yl)-1H-indazol-4-yl]-5-{[(2,2-dimethylpropanoyl)amino]methyl}benzamide hydrochloride]",25.1
